Results as given in ChEMBL document CHEMBL4390668, “Discovery and Structural Optimization of Acridones as Broad-Spectrum Antimalarials” (J Med Chem, 2019).
Calls of active or inactive are those of the source. The rule behind the calls is not given here.

What was measured:
[1] = Mean residence time in ICR mouse liver at 80 mg/kg, po administered as single dose; format: ADME, organism-based
[2] = AUC (0 to infinity) in ICR mouse liver at 80 mg/kg, po administered as single dose; format: ADME, organism-based; set-up: dose 80 mg/kg, route oral, time infinity
[3] = Tmax in ICR mouse liver at 80 mg/kg, po administered as single dose; format: ADME, organism-based
[4] = AUC (0 to infinity) in ICR mouse plasma at 80 mg/kg, po administered as single dose; format: ADME, organism-based; set-up: dose 80 mg/kg, route oral, time infinity; details: in vivo
[5] = AUC (0 to last) in ICR mouse liver at 80 mg/kg, po administered as single dose; format: ADME, organism-based; set-up: dose 80 mg/kg, route oral, time 0 - last
[6] = test system: Plasmodium berghei; test: Antimalarial activity against blood stage luciferase-expressing Plasmodium berghei ANKA 676m1cl1 sporozoites infected in C57BL/6 mouse assessed as suppression of parasitemia at 25 mg/kg, po pretreated for 1 day followed by parasite infection and subsequent compound dosing for 2 days measured up to 30 days post-infection by YOYO1 staining based flow cytometry; format: functional
[7] = Cmax in ICR mouse liver at 80 mg/kg, po administered as single dose; format: ADME, organism-based; set-up: dose 80 mg/kg, route oral
[8] = Mean residence time in ICR mouse plasma at 80 mg/kg, po administered as single dose; format: ADME, organism-based
[9] = AUC (0 to last) in ICR mouse plasma at 80 mg/kg, po administered as single dose; format: ADME, organism-based; set-up: dose 80 mg/kg, route oral, time 0 - last
[10] = Apparent volume of distribution in ICR mouse liver at 80 mg/kg, po administered as single dose; format: ADME, organism-based; details: in vivo
[11] = Tmax in ICR mouse plasma at 80 mg/kg, po administered as single dose; format: ADME, organism-based; details: ICR, plasma, read-out: Tmax
[12] = Apparent volume of distribution in ICR mouse plasma at 80 mg/kg, po administered as single dose; format: ADME, organism-based; details: in vivo
[13] = Cmax in ICR mouse plasma at 80 mg/kg, po administered as single dose; format: ADME, organism-based; set-up: dose 80 mg/kg, route oral; details: ICR, plasma, read-out: Cmax
[14] = test system: Plasmodium falciparum; test: Ratio of IC50 for drug-resistant Plasmodium falciparum 3D7 harboring A82T/V259L double mutant infected in human erythrocytes to IC50 for Plasmodium falciparum 3D7 infected in human erythrocytes; format: functional
[15] = test system: Plasmodium falciparum; test: Antimalarial activity against Plasmodium falciparum 3D7 infected in human erythrocytes after 72 hrs by SYBR green 1-based fluorescence assay; format: functional, organism-based; details: 3D7, 72 h
[16] = molecular target: hERG (KCNH2) (Homo sapiens, UniProt Q12809); test: Inhibition of human ERG expressed in CHOK1 cells at 10 uM by automated patch clamp method relative to control; format: cell-based; details: CHO-K1 cells that express hERG
[17] = test system: Plasmodium falciparum; test: Antimalarial activity against drug-resistant Plasmodium falciparum Dd2 harboring V259L mutant infected in human erythrocytes after 72 hrs by SYBR green 1-based fluorescence assay; format: functional, organism-based; details: Dd2, 72 h
[18] = test system: Plasmodium falciparum; test: Antimalarial activity against drug-resistant Plasmodium falciparum Dd2 harboring M133I/A138T double mutant infected in human erythrocytes after 72 hrs by SYBR green 1-based fluorescence assay; format: functional, organism-based; details: Dd2, 72 h
[19] = test system: Plasmodium berghei; test: Antimalarial activity against luciferase-expressing Plasmodium berghei ANKA 676m1cl1 sporozoites infected in human HepG2A16 cells measured after 45 hrs by luciferase-luciferin based reporter assay; format: functional, organism-based; details: ANKA 676m1cl1, HepG2A16, 45 h
[20] = Mutagenicity in Salmonella typhimurium TA100 assessed as increase in revertant colonies up to 10 uM in presence of S9 fraction by Ames test; format: toxicity, subcellular; details: salmonella enterica subsp. enterica serovar typhimurium
[21] = test system: Plasmodium falciparum; test: Antimalarial activity against drug-resistant Plasmodium falciparum 3D7 harboring A82T/V259L double mutant infected in human erythrocytes after 72 hrs by SYBR green 1-based fluorescence assay; format: functional, organism-based; details: 3D7, 72 h
[22] = test system: HepG2; test: Cytotoxicity against human HepG2 cells measured after 24 to 36 hrs by resazurin dye based fluorescence assay; format: cell-based
[23] = test system: Plasmodium falciparum; test: Ratio of IC50 for drug-resistant Plasmodium falciparum Dd2 harboring M133I/A138T double mutant infected in human erythrocytes to IC50 for multidrug-resistant Plasmodium falciparum Dd2 infected in human erythrocytes; format: functional
[24] = test system: Plasmodium falciparum; test: Antimalarial activity against atovaquone-resistant Plasmodium falciparum Tm90-C2B infected in human erythrocytes by SYBR green 1-based fluorescence assay; format: functional, organism-based
[25] = Half life in mouse liver microsomes at 1 uM by LC-MS analysis; format: ADME, Microsome
[26] = test system: Plasmodium falciparum; test: Inhibition of Plasmodium falciparum cytochrome b-c1
[27] = test system: Plasmodium falciparum; test: Antimalarial activity against multidrug-resistant Plasmodium falciparum 7G8 infected in human erythrocytes by SYBR green 1-based fluorescence assay; format: functional, organism-based
[28] = test system: Plasmodium falciparum; test: Antimalarial activity against drug-resistant Plasmodium falciparum Dd2 harboring M133I mutant infected in human erythrocytes after 72 hrs by SYBR green 1-based fluorescence assay; format: functional, organism-based; details: Dd2, 72 h
[29] = test system: Plasmodium falciparum; test: Antimalarial activity against chloroquine-sensitive Plasmodium falciparum D6 infected in human erythrocytes by SYBR green 1-based fluorescence assay; format: functional, organism-based
[30] = Mutagenicity in Salmonella typhimurium TA98 assessed as increase in revertant colonies up to 10 uM in presence of S9 fraction by Ames test; format: toxicity, subcellular; details: salmonella enterica subsp. enterica serovar typhimurium
[31] = Mutagenicity in Salmonella typhimurium TA98 assessed as increase in revertant colonies up to 10 uM in absence of S9 fraction by Ames test; format: toxicity; details: salmonella enterica subsp. enterica serovar typhimurium
[32] = Half life in human liver microsomes at 1 uM by LC-MS analysis; format: ADME, Microsome
[33] = test system: Plasmodium falciparum; test: Ratio of IC50 for drug-resistant Plasmodium falciparum Dd2 harboring V259L mutant infected in human erythrocytes to IC50 for multidrug-resistant Plasmodium falciparum Dd2 infected in human erythrocytes; format: functional
[34] = Mutagenicity in Salmonella typhimurium TA100 assessed as increase in revertant colonies up to 10 uM in absence of S9 fraction by Ames test; format: toxicity; details: salmonella enterica subsp. enterica serovar typhimurium
[35] = Selectivity index, ratio of IC50 for human HepG2 cells to IC50 for chloroquine-sensitive Plasmodium falciparum D6 infected in human erythrocytes; format: toxicity, cell-based; details: read-out: Ratio IC50
[36] = test system: Plasmodium berghei; test: Antimalarial activity against liver stage luciferase-expressing Plasmodium berghei ANKA 676m1cl1 sporozoites infected in C57BL/6 mouse assessed as suppression of parasitemia at 40 to 160 mg/kg, po pretreated for 1 day followed by parasite infection and subsequent compound dosing for 2 days measured at 24 to 48 hrs post-infection by luciferin-based real-time imaging analysis; format: functional
[37] = test system: Plasmodium falciparum; test: Antimalarial activity against multidrug-resistant Plasmodium falciparum Dd2 infected in human erythrocytes by SYBR green 1-based fluorescence assay; format: functional, organism-based
[38] = test system: Plasmodium falciparum; test: Ratio of IC50 for drug-resistant Plasmodium falciparum Dd2 harboring M133I mutant infected in human erythrocytes to IC50 for multidrug-resistant Plasmodium falciparum Dd2 infected in human erythrocytes; format: functional
[39] = test system: Plasmodium yoelii; test: Antimalarial activity against blood stage Plasmodium yoelii MR4 MRA-428 infected in CF1 mouse assessed as suppression of parasitemia administered once daily via oral gavage for 4 days starting from 24 hrs post-infection and measured post-last dose by Giemsa-staining based microscopic analysis; format: functional

hERG (KCNH2), sequence (Q12809 whole entry): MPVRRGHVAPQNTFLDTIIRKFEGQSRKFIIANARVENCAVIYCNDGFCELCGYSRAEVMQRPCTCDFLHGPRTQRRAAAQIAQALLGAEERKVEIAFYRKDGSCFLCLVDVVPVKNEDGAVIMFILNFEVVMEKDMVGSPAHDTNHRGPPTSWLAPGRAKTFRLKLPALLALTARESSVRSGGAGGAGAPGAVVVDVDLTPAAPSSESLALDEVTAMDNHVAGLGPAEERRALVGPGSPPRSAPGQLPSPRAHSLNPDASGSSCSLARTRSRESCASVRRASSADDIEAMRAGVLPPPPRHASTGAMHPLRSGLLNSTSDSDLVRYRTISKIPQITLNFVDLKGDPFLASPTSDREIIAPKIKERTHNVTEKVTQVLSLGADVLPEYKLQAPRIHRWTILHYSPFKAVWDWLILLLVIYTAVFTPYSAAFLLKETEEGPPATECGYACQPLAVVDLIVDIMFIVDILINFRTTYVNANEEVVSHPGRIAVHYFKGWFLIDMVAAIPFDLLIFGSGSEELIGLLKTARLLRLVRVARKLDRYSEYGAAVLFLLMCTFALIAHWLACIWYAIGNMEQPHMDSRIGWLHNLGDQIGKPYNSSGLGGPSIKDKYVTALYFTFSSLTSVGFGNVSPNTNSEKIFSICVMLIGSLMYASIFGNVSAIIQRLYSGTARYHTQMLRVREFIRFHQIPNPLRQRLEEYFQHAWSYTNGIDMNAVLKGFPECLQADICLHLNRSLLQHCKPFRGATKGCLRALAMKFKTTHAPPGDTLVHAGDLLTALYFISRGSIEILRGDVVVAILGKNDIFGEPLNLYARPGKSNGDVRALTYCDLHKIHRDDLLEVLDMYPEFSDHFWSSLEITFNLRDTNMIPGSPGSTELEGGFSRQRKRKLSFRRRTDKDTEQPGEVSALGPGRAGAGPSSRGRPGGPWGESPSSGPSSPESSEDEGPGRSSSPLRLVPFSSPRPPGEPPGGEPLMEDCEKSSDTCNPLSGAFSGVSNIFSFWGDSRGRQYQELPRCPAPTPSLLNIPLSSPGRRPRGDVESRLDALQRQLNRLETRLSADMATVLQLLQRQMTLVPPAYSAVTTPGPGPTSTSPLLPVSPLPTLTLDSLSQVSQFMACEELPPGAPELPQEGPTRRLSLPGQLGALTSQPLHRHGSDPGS

COc1cc(NC(C)CCCN)c2ncccc2c1 (stereo not given) [PRIMAQUINE]
MRT [1]: 270 min | AUC(0-inf) [2]: 27700 ng·h/mL | Tmax [3]: 30 min | AUC [4]: 1314 ng·h/mL | AUC(0-t) [5]: 27400 ng·h/mL | Activity [6]: 100% | Cmax [7]: 8150 ng/mL | MRT [8]: 138 min | AUC(0-t) [9]: 1260 ng·h/mL | Vz [10]: 4.418 L/kg | Tmax [11]: 30 min | Vz [12]: 43.801 L/kg | Cmax [13]: 531 ng/mL

CCN(CC)CCOc1ccc2c(=O)c3c(Cl)c(Cl)ccc3[nH]c2c1
Ratio IC50 [14]: 54 | IC50 [15]: 28 nM | inhibition at 10 µM [16]: 78% | IC50 [17]: 1440 nM | IC50 [18]: 1680 nM | IC50 [19]: 5.5 nM | Activity [20]: Non-Toxic | IC50 [21]: 1520 nM | IC50 [22]: 14400 nM | Ratio IC50 [23]: 42 | IC50 [24]: 1260 nM | half-life at 1 µM [25]: 50 min | inhibition [26]: inactive | IC50 [27]: 17 nM | IC50 [28]: 242 nM | IC50 [29]: 10 nM | Activity [30]: Non-Toxic | Activity [31]: Non-Toxic | half-life at 1 µM [32]: > 60 min | Ratio IC50 [33]: 36 | Activity [34]: Non-Toxic | selectivity ratio [35]: 1440 | Activity [36]: 100% | IC50 [37]: 12 to 40 nM | Ratio IC50 [38]: 6 | ED50 [39]: 1.8 mg/kg.day | ED90 [39]: 8.8 mg/kg.day
